System: HEK293 cells
Test: Preliminary screening as mRNA vectors, EGFP mRNA transfection of HEK293 cells
Format: cell-based
Conditions: EGFP mRNA 50 ng per well, 96-well plates; percentage of GFP fluorescent cells relative to total number of cells (Hoechst)
Procedure, shortened: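 HEK293 cells in DMEM plus 10% FBS transfected in 96-well format with 50 ng EGFP mRNA per well; Lipofectamine2000 served as positive control. Read-out is the percentage of GFP-fluorescent cells among total cells, counted by Hoechst nuclear stain.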

Row | Structure (SMILES) | Absolute mRNA transfection efficiency in HEK293 cells [%]
1 | CCCCCCCCCCCCCCCCCCSc1nc(NCCCCCCCCCCCCC)nc(NCCCN2CCOCC2)n1 [Compound D8S18N13] | 0.0
2 | CCCCCCCCCCCCCCCNc1nc(NCC2CCN(C)CC2)nc(SCCCCCCCCC)n1 [Compound D10S9N15] | 17.5
3 | CCCCCCCCCCCCCCCCCCSc1nc(NCCCCCCCCCCCC)nc(NCC2CCN(C)CC2)n1 [Compound D10S18N12] | 2.0
4 | CCCCCCCCCCCCCCCSc1nc(NCCN(C)C)nc(SCCCCCCC)n1 [Compound D1S7S15] | 3.9
5 | CCCCCCCCCCCSc1nc(NCCN(CC)CC)nc(SCCCCCCC)n1 [Compound D7S7S11] | 4.5
6 | CCCCCCCCCCCSc1nc(NCCN2CCN(C)CC2)nc(SCCCCCC)n1 [Compound D5S6S11] | 21.1
7 | CCCCCCCCCCCCCCCCSc1nc(NCCCCCC)nc(NCCCN2CCOCC2)n1 [Compound D8S16N6] | 18.2
8 | CCCCCCCCCCCCCCCCCCNc1nc(NCCCN2CCOCC2)nc(SCCCCCCCCCCCCCC)n1 [Compound D8S14N18] | 0.3
9 | CCCCCCCCCCCCCCCSc1nc(NCCN2CCOCC2)nc(N(CCCCCCCCCCCC)CCCCCCCCCCCC)n1 [D2S15^2N12] | 0.4
10 | CCCCCCCCCCCCCCCCSc1nc(NCCCCCCCCCCCCC)nc(NCCN2CCCCC2)n1 [Compound D4S16N13] | 0.1
11 | CCCCCCCCCCCCNc1nc(NCCCN(C)C)nc(SCCCCCC)n1 [Compound D6S6N12] | 3.5
12 | CCCCCCCCCCCCCCCCCCNc1nc(NCCN2CCOCC2)nc(SCCCCCCCC)n1 [Compound D2S8N18] | 3.7
13 | CCCCCCCCCCCSc1nc(NCCCCCCCC)nc(NCC2CCN(C)CC2)n1 [Compound D10S11N8] | 46.1
14 | CCCCCCCCCCCSc1nc(NCCCCCCCC)nc(NCCN2CCN(C)CC2)n1 [Compound D5S11N8] | 36.2
15 | CCCCCCCCSc1nc(NCCCN2CCN(C)CC2)nc(SCCCCCCC)n1 [Compound D9S7S8] | 43.7
16 | CCCCCCCSc1nc(NCC2CCN(C)CC2)nc(SCCCCCC)n1 [Compound D10S6S7] | 19.7
17 | CCCCCCCCCCCCCNc1nc(NCCN(C)C)nc(SCCCCCCCCC)n1 [Compound D1S9N13] | 25.8
18 | CCCCCCCCCCCCNc1nc(NCCN2CCCCC2)nc(SCCCCCCCCC)n1 [Compound D4S9N12] | 9.5
19 | CCCCCCCCCNc1nc(NCCN(CC)CC)nc(SCCCCCCC)n1 [Compound D7S7N9] | 10.5
20 | CCCCCCCCCCCCCCCSc1nc(NCCCCCCCCCCC)nc(NCCN(C)C)n1 [Compound D1S15N11] | 11.9
21 | CCCCCCCCCNc1nc(NCCN2CCCCC2)nc(SCCCCCCCC)n1 [Compound D4S8N9] | 2.3
22 | CCCCCCCCCCCCCCCCNc1nc(NCCN(CC)CC)nc(SCCCCCCCCCCCC)n1 [Compound D7S12N16] | 6.3
23 | CCCCCCCCCCCNc1nc(NCCCN2CCOCC2)nc(SCCCCCCC)n1 [Compound D8S7N11] | 20.1

Row | Structure (SMILES) | Absolute mRNA transfection efficiency in HEK293 cells [%]
24 | CCCCCCCCCCCCSc1nc(NCCN2CCCCC2)nc(SCCCCCC)n1 [Compound D4S6S12] | 0.2
25 | CCCCCCCCCCCCCCCSc1nc(NCCCCCCCCC)nc(NCCN2CCN(C)CC2)n1 [Compound D5S15N9] | 22.3
26 | CCCCCCCCCCCCCCCCCCSc1nc(NCCCCCCCC)nc(NCC2CCN(C)CC2)n1 [Compound D10S18N8] | 16.8
27 | CCCCCCCCCCCCCCCCCCSc1nc(NCCCCCCCC)nc(NCCN2CCOCC2)n1 [Compound D2S18N8] | 3.1
28 | CCCCCCCCCCCCSc1nc(NCCCCCC)nc(NCCN(C)C)n1 [Compound D1S12N6] | 0.0
29 | CCCCCCCCCCCCCCSc1nc(NCC2CCN(C)CC2)nc(SCCCCCC)n1 [Compound D10S6S14] | 54.4
30 | CCCCCCCCCCCCCCSc1nc(NCCCCCCCC)nc(NCCN2CCCC2)n1 [Compound D3S14N8] | 55.2
31 | CCCCCCCCCSc1nc(NCCCCCC)nc(NCCN2CCCCC2)n1 [Compound D4S9N6] | 0.3
32 | CCCCCCCCCCCCCCSc1nc(NCCCN2CCN(C)CC2)nc(SCCCCCC)n1 [Compound D9S6S14] | 35.8
33 | CCCCCCCCCCCCCCCCSc1nc(NCCCCCCCCCCCCC)nc(NCCN2CCCC2)n1 [Compound D3S16N13] | 0.4
34 | CCCCCCCCCCCCCCCCCCNc1nc(NCCCN2CCOCC2)nc(SCCCCCCCCCCCC)n1 [Compound D8S12N18] | 1.1
35 | CCCCCCCCCCCCCCCCCCNc1nc(NCCN2CCCC2)nc(SCCCCCCCCCCCCCC)n1 [Compound D3S14N18] | 1.5
36 | CCCCCCCCCCCCCCCCSc1nc(NCCCCCCCCCCC)nc(NCCN(CC)CC)n1 [Compound D7S16N11] | 8.3
37 | CCCCCCCSc1nc(NCCN2CCCC2)nc(SCCCCCCC)n1 [Compound D3S7S7] | 12.2
38 | CCCCCCCCCCCCCCCCSc1nc(NCCCCCCCCCCCCCCC)nc(NCCN2CCOCC2)n1 [Compound D2S16N15] | 0.2
39 | CCCCCCCCCCCCCCSc1nc(NCCCCCCCC)nc(NCCN(C)C)n1 [Compound D1S14N8] | 56.7
40 | CCCCCCCCCCCCSc1nc(NCCCCCCC)nc(NCCCN2CCN(C)CC2)n1 [Compound D9S12N7] | 0.6
41 | CCCCCCCCSc1nc(NCCCCCC)nc(NCCN2CCCC2)n1 [Compound D3S8N6] | 2.6
42 | CCCCCCCCCCCCSc1nc(NCCCCCCCCCCC)nc(NCCN2CCCC2)n1 [Compound D3S12N11] | 21.2
43 | CCCCCCCCCCCCN(CCCCCCCCCCCC)c1nc(NCCN(C)C)nc(SCCCCCCCCCCC)n1 [D1S11^2N12] | 0.0
44 | CCCCCCCCCCCNc1nc(NCCCN2CCOCC2)nc(SCCCCCCCC)n1 [Compound D8S8N11] | 7.9
45 | CCCCCCCCCCCSc1nc(NCCCCCCCCC)nc(NCC2CCN(C)CC2)n1 [Compound D10S11N9] | 87.7
46 | CCCCCCCCCCCCCCCSc1nc(NCCN(CC)CC)nc(N(CCCCCCCCCCCC)CCCCCCCCCCCC)n1 [D7S15^2N12] | 1.8

Row | Structure (SMILES) | Absolute mRNA transfection efficiency in HEK293 cells [%]
47 | CCCCCCCCNc1nc(NCCN2CCN(C)CC2)nc(SCCCCCCCC)n1 [Compound D5S8N8] | 1.3
48 | CCCCCCCCCCCCCCCCSc1nc(NCCCCCC)nc(NCCN2CCOCC2)n1 [Compound D2S16N6] | 23.6
49 | CCCCCCCCCCCCCCSc1nc(NCCN2CCOCC2)nc(SCCCCCC)n1 [Compound D2S6S14] | 6.6
50 | CCCCCCCCCCCCSc1nc(NCCCCCCCCCCC)nc(NCCN2CCOCC2)n1 [Compound D2S12N11] | 0.3
51 | CCCCCCSc1nc(NCCN2CCCC2)nc(SCCCCCC)n1 [Compound D3S6S6] | 1.9
52 | CCCCCCCCCNc1nc(NCCN(C)C)nc(SCCCCCCCC)n1 [Compound D1S8N9] | 21.4
53 | CCCCCCCCSc1nc(NCCCCCC)nc(NCCN2CCCCC2)n1 [Compound D4S8N6] | 2.7
54 | CCCCCCCCCCSc1nc(NCCCCCCC)nc(NCCCN2CCN(C)CC2)n1 [Compound D9S10N7] | 0.8
55 | CCCCCCCCCCCCN(CCCCCCCCCCCC)c1nc(NCCN2CCN(C)CC2)nc(SCCCCCC)n1 [D5S6^2N12] | 0.3
56 | CCCCCCCCCSc1nc(NCCN2CCOCC2)nc(SCCCCCCCC)n1 [Compound D2S8S9] | 84.9
57 | CCCCCCCCSc1nc(NCCN2CCCCC2)nc(SCCCCCC)n1 [Compound D4S6S8] | 0.5
58 | CCCCCCCCCCCCSc1nc(NCCCCCCCCC)nc(NCCN2CCN(C)CC2)n1 [Compound D5S12N9] | 26.5
59 | CCCCCCCCCCCCCCCSc1nc(NCCCN2CCOCC2)nc(N(CCCCCCCCCCCC)CCCCCCCCCCCC)n1 [D8S15^2N12] | 2.9
60 | CCCCCCCCCCCCCCCCCCSc1nc(NCCCCCCC)nc(NCCCN2CCN(C)CC2)n1 [Compound D9S18N7] | 86.6
61 | CCCCCCCCCCCNc1nc(NCCCN(C)C)nc(SCCCCCCCCCCC)n1 [Compound D6S11N11] | 35.5
62 | CCCCCCCCCCCCSc1nc(NCCCN(C)C)nc(N(CCCCCCCCCCCC)CCCCCCCCCCCC)n1 [D6S12^2N12] | 2.4
63 | CCCCCCCCCCCCCNc1nc(NCCN(CC)CC)nc(SCCCCCCCCCCCC)n1 [Compound D7S12N13] | 4.9
64 | CCCCCCCCCCCCCCCCCCNc1nc(NCCCN(C)C)nc(SCCCCCCCCCCCCCCCC)n1 [Compound D6S16N18] | 0.0
65 | CCCCCCCCCCCCSc1nc(NCCCCCCCC)nc(NCCCN2CCN(C)CC2)n1 [Compound D9S12N8] | 20.1
66 | CCCCCCCCCCCNc1nc(NCCN2CCN(C)CC2)nc(SCCCCCCCCC)n1 [Compound D5S9N11] | 32.1
67 | CCCCCCCCCCCCCCSc1nc(NCCCCCCCCCCC)nc(NCCN2CCN(C)CC2)n1 [Compound D5S14N11] | 19.8

Reference: patent US20230123334A1, “AMINO LIPID COMPOUND, PREPARATION METHOD THEREFOR, AND APPLICATION THEREOF” (SHENZHEN SHENXIN BIOTECHNOLOGY CO., LTD., priority 2020, published 2023)
